This is an account of results in patent publication US11890299B2, “Ablation agent and methods of use” (HOLOGIC, INC., priority 2019, dated 2024).

The test system of this experiment is bovine liver (simulated tissue). The experiment in a line: Bolus / chemical ablation test in sample bovine liver tissue. From the text:
For example, a solid active agent (HAuCl4) may be added to water at room temperature, and mixed for approximately ten (10) minutes, then filtered and ready to use. The active agent (HAuCl4) solution may be stored for up to a year without stability issues. The hydrophilic nature of the solution facilitates the delivery and spread of the active agent (HAuCl4) throughout the entire target tissue/cavity, while avoiding formation of lumps in the solution or patches of tissue without the solution when delivered.
FIGS. 2A-C and FIGS. 3-5 illustrate exemplary ablative effects of the active agent (HAuCl4) 300 when applied to a sample tissue. FIG. 2A illustrates a liquid DI water solution of active agent (HAuCl4) 300, a syringe 400 and a sample bovine liver tissue 500. […] FIG. 2C depicts the ablated tissue 500.
Various tests were performed in sample tissue 500. For example, in some tests the active agent (HAuCl4) 300 (1 ml) was delivered into the tissue 500 having a constant time of exposure (e.g., 2 minutes at room temperature) but the bolus size (ablated volume) was measured under different active agent (HAuCl4) concentrations (FIG. 3). Data contained in FIG. 3 was measured three times and obtained the average value for the graph, as shown. As known in the art, bolus tests are common to understand diffusion and effectiveness of ablative technologies.
In another test, the active agent (HAuCl4) concentration was maintained constant at 0.5% in an injected 1 ml into the sample tissue but the bolus size was measured at different times (FIG. 4). Data reference in FIG. 4 was measured five times and obtained the average value for the graph, as shown. […] Additionally, the bolus size is time dependent but after 3 minutes, 1 ml of 0.5% HAuCl4 DI-water solution stopped the reaction because the solution is not strong enough to penetrate the tissue further. Therefore, the active agent (HAuCl4) chemical ablation is quantity and time dependent.
FIG. 5 illustrates sample tissue ablation profiles measured and characterized for a range of active agent (HAuCl4) concentration (0.10%, 0.25% and 1% of HAuCl4 within 2 minutes, and a variety of bolus sizes). Optimization was performed to select 0.5% of HAuCl4 in order to achieve desirable ablation profile (rage of 4-9 mm ablation depth of tissue). Additional optimization could be performed to achieve shallower profiles (if desired).

Molecules are shown by their SMILES.

With `[Au+3].[Cl-].[Cl-].[Cl-].[Cl-].[H+]` [HAuCl4, chloroauric acid], for the setting “0.5% HAuCl4 diluted in water, up to three (3) minutes of exposure”, the “penetration depths in the tissue from the surface of the tissue” value is given as 4-9 mm. Where the note is “0.5% of HAuCl4 selected by optimization”, the “ablation depth of tissue (ablation profile)” value was 4-9 mm. Under “1 ml injected, 2 minutes at room temperature, different concentrations (FIG. 3)”, the “bolus size (ablated volume) versus concentration” value is recorded as “increases with the active agent (HAuCl4) concentration”. In addition, for the setting “1 ml of 0.5% HAuCl4 DI-water solution (FIG. 4)”, the “time after which the reaction stopped (bolus size versus time)” value was 3 min.
